This data set concerns bees. Nature of the data set: Bee oral toxicity test adapted from OECD Test No. 247 (Bumblebee, Acute Oral Toxicity Test). It counts as in vivo. Conditions: % survival after 96 hours, compared to Imidacloprid, Figure 9. Here is the method:
Bee oral testing protocol was carried out adapted from OECD Test No. 247: Bumblebee, Acute Oral Toxicity Test. The toxicity of SB-P-47 was compared with a negative control of sucrose or vehicle, and with a current commercial insecticide Imidacloprid.

Where a SMILES comes first, the peptide text is derived from it. [ ]: non-standard residue; d: D form. pGlu = O=C1CC[C@@H](C(=O)O)N1

Take `CC[C@H](C)[C@H](NC(=O)[C@H](C)NC(=O)[C@@H]1CCC(=O)N1)C(=O)N[C@@H](CCSC)C(=O)N[C@@H](C)C(=O)N[C@@H](CCCNC(=N)N)C(=O)N1CCC[C@H]1C(=O)N[C@@H](CCC(N)=O)C(=O)N[C@H](C(=O)N1CCC[C@H]1C(=O)N[C@@H](CCCNC(=N)N)C(=O)N[C@@H](CC(C)C)C(N)=O)C(C)C` [SB-P-47, [Pyr]-AIMARPQVPRL-[NH2]] ([pGlu]AIMARPQVPRL-NH2): the “toxicity to key pollinator species such as bees” value was “far lower toxicity”.

The record behind these values is patent EP4545548B1, “INSECT NEUROPEPTIDES” (Solasta Bio Limited, priority 2023, dated 2025).
